Measured values as given in patent US20100316673A1, “NA[…]” (priority 2009, published 2010).
Entries after “also recorded” stand apart in the source; their conditions may differ.

Test system: virus
Test: Virus inactivation by detergent component versus nanoemulsion
Assay type: cell-based
Conditions: at concentrations equivalent to 11% X8P (BCTP)
Text: The nanoemulsions structure of the certain embodiments of the emulsions of the present invention may play a role in their biocidal activity as well as contributing to the non-toxicity of these emulsions. […] Adding the oil phase to the detergent and solvent markedly reduces the toxicity of these agents in tissue culture at the same concentrations. […] It should be noted that when all the components of X8P are combined in one composition but are not in a nanoemulsion structure, the mixture is not as effective as an antimicrobial as when the components are in a nanoemulsion structure.
Individual components of nanoemulsions (e.g. in an immunogenic composition of the present invention) can function both to inactivate a pathogen as well as to contribute to the non-toxicity of the emulsions. […] Adding the oil phase to the detergent and solvent markedly reduces the toxicity of these agents in tissue culture at the same concentrations. […] Furthermore, when all the components of BCTP are combined in one composition but are not in a nanoemulsion structure, the mixture is not as effective at inactivating a pathogen as when the components are in a nanoemulsion structure.

In the case of TRITON X-100 [TRITON-X100], the “biocidal activity against virus (ability to inactivate a virus)” value is reported as “less biocidal activity; also recorded: less ability to inactivate a virus”.
